Measured values taken from the METLIN SMRT retention time set (Domingo-Almenara et al. 2019).

Assay: gradient 5% acetonitrile 3 min, to 50% in 2 min, to 85% in 15 min, held 3 min, 100 µL/min
Settings: column: Zorbax Extend-C18 2.1 x 50 mm; eluents: water / acetonitrile, 0.1% formic acid
Procedure, shortened: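 Values are retention times taken from adduct peaks that software picked and an analyst inspected. The pure standards were run as mixtures of ~100 molecules on HPLC linked to a quadrupole time-of-flight mass spectrometer, in positive and negative ionization mode. A Zorbax Extend-C18 column (2.1 × 50 mm, 1.8 μm) was used at 100 μL/min with water and acetonitrile, each including 0.1% formic acid.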

| RP-LC retention time | SMILES |
| --- | --- |
| 608 s | Cc1ccc(-c2nnc(N3CCC(C(=O)NCCCN4CCOCC4)CC3)o2)cc1 |
| 927 s | CCn1c(=O)c(N2CCN(C(=O)NCc3ccc(C)cc3)CC2)nc2ccccc21 |
| 746 s | CC(C)n1cnc2ccc(-c3noc(-c4cccs4)n3)cc21 |
| 1080 s | CCCc1nc(-c2ccccc2)oc1CC(=O)Nc1cccc(Cl)c1C |
| 976 s | COc1ccc(NC(=O)C2=Cc3cc(OC)ccc3OC=C2)cc1 |
| 845 s | Cc1ccc(N2CC(c3nc(-c4ccncc4)no3)CC2=O)cc1Cl (centres undefined) |
| 575 s | Cc1nc2ccn(Cc3cccnc3)c(=O)c2cc1C(=O)NCc1ccco1 |
| 735 s | Cn1c(=O)c(C(=O)NCc2ccccc2)nc2cccnc21 |
| 561 s | COCCn1c(C2CCN(C(=O)c3cc(Cl)ccc3OC)C2)nc2ccncc21 (centres undefined) |
| 612 s | COc1ccc(-c2nc3cnccn3c2Nc2ccc(C(N)=O)cc2)cc1 |
| 553 s | CCOC(=O)N1CCN(C(=O)Cn2c(-c3cccn(C)c3=O)nc3ccccc32)CC1 |
| 1280 s | CCOC(=O)c1cccc(NC(=O)C2CCCN(c3nc4ccccc4nc3C(F)(F)F)C2)c1 (centres undefined) |
| 906 s | Cc1ccc(-c2nc(C)c(C(=O)N3CCCC3)s2)cc1 |
| 1080 s | O=[N+]([O-])c1cccc(-c2nnc3c4cnn(-c5ccc(F)cc5)c4ncn23)c1 |
| 737 s | CCN1C(=O)c2cccnc2Sc2cc(CNC(=O)c3cccs3)ccc21 |
| 1190 s | CC(C)c1ccc(Nc2c(-c3cc(Br)ccc3O)nc3ncccn23)cc1 |
| 1110 s | O=S(=O)(c1ccccc1F)N1CCC(c2noc(-c3cccc(F)c3)n2)CC1 |
| 841 s | O=c1c2nc(-c3ccccc3)cn2ccn1-c1ccc(Cl)cc1 |
| 1160 s | CC(C)(C)c1ccc(C(=O)NC2(c3nc(-c4cccnc4)no3)CCCCC2)cc1 |
| 706 s | C=CCn1nc2ccc(S(=O)(=O)N3CCCC3)cn2c1=O |
| 613 s | Cc1nnc2cc(N3CCN(Cc4ccc(C(C)C)cc4)CC3)cnn12 |
| 769 s | NC(=O)c1oc2ccccc2c1NC(=O)c1coc2ccccc2c1=O |

| RP-LC retention time | SMILES |
| --- | --- |
| 866 s | O=C(NCc1ccccc1)C1CCN(S(=O)(=O)c2cc(C(=O)N3CCCCCC3)cs2)CC1 |
| 857 s | CCCN(CC1CCOC1)C(=O)Nc1ccc(C)c(F)c1 (centres undefined) |
| 679 s | CC(=O)Nc1ccc(NC(=O)C2CC(=O)N(CCc3c[nH]c4ccc(Cl)cc34)C2)cc1 (centres undefined) |
| 934 s | Cc1cc(NC(=O)Cn2c(C)cc(-c3nnc(C4CCC4)o3)c2C)ccc1F |
| 863 s | CCCNC(=O)c1c(C)sc2ccn(Cc3ccc(F)cc3)c(=O)c12 |
| 1030 s | Cc1ccc(C)c(NC(=O)c2cc(C)n3nccc3n2)c1 |
| 762 s | Cc1nnc(N2CCCC(C(=O)NCCCc3ccccc3)C2)c2nn(-c3ccccc3)c(C)c12 (centres undefined) |
| 868 s | Cc1oc(C2CCN(C(=O)c3ccc(F)c(Cl)c3)CC2)nc1C(=O)N1CCCCC1 |
| 654 s | COc1cc(OC)c(NC(=O)C2=C(C)C(=O)OC23CCN(C(C)C)CC3)cc1Cl |
| 770 s | Cc1oc(-c2[nH]ncc2C(=O)N(C)C)cc1S(=O)(=O)Nc1ccc(C(C)C)cc1 |
| 891 s | COc1ccc(-c2ccc(=O)n(Cc3nc(-c4ccccc4OC)no3)n2)cc1 |
| 665 s | COc1ccc(N2CC(c3nc(-c4cccnc4)no3)CC2=O)cc1OC (centres undefined) |
| 611 s | CCCc1cc(N2CCN(C(=O)c3ccsc3)CC2)nc2nnc(C)n12 |
| 1310 s | CCN(C(=O)c1ccccc1Cl)c1nc(-c2ccccc2)cs1 |
| 1020 s | CN(C)c1ccc(-c2nc(-c3cn(Cc4cccc(F)c4)nn3)no2)cc1 |
| 787 s | CCOC(=O)C1CCCN(C(=O)C2c3cc(OC)c(OC)cc3C(=O)N(C)C2c2cccs2)C1 (centres undefined) |
| 663 s | COc1ccc(-c2nc3ccccn3c2Nc2ccc(C)cc2)cc1O |
| 735 s | O=C(C1CCN(S(=O)(=O)Cc2ccc(F)cc2)CC1)N1CCCC1 |
| 1040 s | Cc1csc(-c2cc(S(=O)(=O)Nc3ccc(F)cc3Cl)c(C)s2)n1 |
| 827 s | O=C(Nc1nnc(SCC(=O)N2CCCc3ccccc32)s1)c1cccs1 |
| 926 s | COC(=O)c1ccc(NC(=O)CSc2cc(N3CCN(c4ccc(OC)cc4)CC3)ncn2)cc1 |
| 980 s | CC(C)Cn1c(=O)c(N2CCC(NC(=O)NCc3ccccc3)CC2)nc2ccccc21 |

| RP-LC retention time | SMILES |
| --- | --- |
| 769 s | CSc1cccc(NC(=O)Cn2c(-c3cnccn3)nc(C)c(C)c2=O)c1 |
| 975 s | CC1(C)CC(=O)C2=C(C1)N(CC1CCCO1)C(=O)C2(NC(=O)c1ccc(Cl)cc1)C(F)(F)F (centres undefined) |
| 702 s | O=C(NCC1CCCO1)C1CCN(Cc2cc3ccccc3n2Cc2ccc(F)cc2)CC1 (centres undefined) |
| 726 s | CC(CNC(=O)c1nc(N2CCOCC2)c2ccccc2n1)c1ccccc1 (centres undefined) |
| 735 s | O=C(NCc1ccc2[nH]c3c(c2c1)CCCC3)C1CC1 |
| 860 s | O=C1CC(c2nc(-c3ccccc3F)no2)CN1c1ccc2c(c1)OCCO2 (centres undefined) |
| 1220 s | Cc1sc(-c2nc(C(C)C)cs2)cc1S(=O)(=O)Nc1cc(F)ccc1F |
| 1160 s | Cc1oc2ccn(Cc3ccccc3F)c(=O)c2c1C(=O)NC1CCCCC1 |
| 1000 s | COc1cccc2sc(N3CCc4ccccc4C3)nc12 |
| 584 s | O=C(Cc1cccs1)NC1CC(=O)N(C2CC2)C1 (centres undefined) |
| 1100 s | COc1cccc(NC(=O)Cn2nc3cc(C)nc(Nc4ccc(C)c(F)c4)n3c2=O)c1 |
| 801 s | CCCNC(=O)C1CCCN(c2nc3ncn(CC(=O)Nc4ccc(C(C)C)cc4)c(=O)c3s2)C1 (centres undefined) |
| 628 s | CCCNC(=O)C1CCCN(c2ccc(SCC(=O)Nc3c(F)cccc3F)nn2)C1 (centres undefined) |
| 628 s | O=C(Cc1ccccc1Cl)N1CCN(c2ccc3nncn3n2)CC1 |
| 609 s | CCC1CN2C=NC(N3CCN(C(=O)c4ccc5c(c4)OCO5)CC3)=CC2=N1 (centres undefined) |
| 981 s | O=C(C1CCN(c2nc3ccc(-c4cccc(F)c4)nc3s2)CC1)N1CCCC1 |
| 959 s | Cc1ccc(-c2noc(C(=O)N3CCCC3)n2)cc1S(=O)(=O)N1CCN(c2ncccn2)CC1 |
| 586 s | COc1ccc(-c2noc(Cn3ccnc3)n2)cc1OC |
| 924 s | Cc1noc(C)c1S(=O)(=O)N1CCC2(CC1)CN(c1ccccc1)C2=O |
| 640 s | CN(C(=O)Cn1nc(Cc2cccnc2)c2ccccc2c1=O)C1CCCCC1 |
| 707 s | CSc1ccccc1NC(=O)C(C)Cn1nc(-c2ccco2)ccc1=O (centres undefined) |
| 1150 s | COc1ccc(C2(c3nc(-c4cccc(-c5ccnn5C)c4)no3)CC2)cc1 |

| RP-LC retention time | SMILES |
| --- | --- |
| 736 s | Cc1ccn2c(Nc3ccc4c(c3)OCO4)c(-c3ccc(Cl)cc3)nc2c1 |
| 1000 s | CCn1cc(-c2nc(C(=O)Nc3ccc(OC)cc3)cs2)c2cccnc21 |
| 1100 s | COc1ccccc1-c1nnc(-c2ccc(Cl)c(S(=O)(=O)N3CCCCC3)c2)o1 |
| 866 s | Cc1ccc(N2CCCS2(=O)=O)cc1NS(=O)(=O)c1c(C)noc1C |
| 714 s | Cc1cc2nc(C(=O)NC3CC3)c(=O)n(C)c2cc1C |
| 597 s | CCCN1CCN(CCNc2nnc(-c3nc(C4CC4)no3)c3ccccc23)CC1 |
| 798 s | O=C(NCc1noc(Cc2ccccc2)n1)c1ccccc1 |
| 603 s | COc1ccc(S(=O)(=O)N2CCOC2CNC(=O)C(=O)NCc2ccccn2)cc1C (centres undefined) |
| 670 s | Cc1ccnc(N2CCCC(C(=O)NCCCN3CCN(c4cc(Cl)ccc4C)CC3)C2)n1 (centres undefined) |
| 677 s | CC1CCCN(CC2CCN(S(=O)(=O)CCc3ccccc3)CC2)C1 (centres undefined) |
| 556 s | O=C(CCc1ccccc1)NCC1CCN(Cc2ccccn2)CC1 |
| 871 s | COc1ccc(NC(=O)C(C)C2CCN(C(=O)Nc3ccc(F)cc3)CC2)c(OC)c1 (centres undefined) |
| 740 s | O=C(NC1CCN(c2cc(-c3ccc(F)cc3)[nH]n2)C1)c1ccc(F)cc1Cl (centres undefined) |
| 650 s | CSc1cccc(NC(=O)N2CCN(c3cc(C)nc(N4CCOCC4)n3)CC2)c1 |
| 566 s | CC(=O)Nc1ccc(NC(=O)C2CCCN(C(=O)c3cc(-c4ccncc4)n[nH]3)C2)cc1 (centres undefined) |
| 1070 s | Cc1nn(-c2ccc(-c3noc(C4CC4)n3)cc2)cc1C(=O)Nc1cc(F)ccc1F |
| 855 s | COc1cc(Cl)c(C)cc1-n1ccn(Cc2c(F)cccc2Cl)c(=O)c1=O |
| 1030 s | O=C(Nc1c(F)cc(F)cc1F)c1sc2ccccc2c1Cl |
| 602 s | COc1cccc(NC(=O)Cn2ccnc2-c2ccnc(N3CCCC3)c2)c1 |

| SMILES | RP-LC retention time |
| --- | --- |
| CCOc1ccc([C@H]2N(c3cc(C)on3)C(=O)[C@@H]3CCCN32)cc1 | 743 s |
| OC1CCCCC1N1CCC(c2ccccc2)CC1 (centres undefined) | 679 s |
| COc1ccc2c(c1)C1(CCN(S(=O)(=O)c3cccc(Cl)c3)C1)C(=O)N2C (centres undefined) | 978 s |
| O=C(c1cccs1)N1[C@H]2CC[C@@H]1c1cnc(-c3ccc(F)cc3)nc1C2 | 979 s |
